Measured values from ChEMBL document CHEMBL1143524, “Anti-tumor abietane diterpenes from the cones of Sequoia sempervirens” (2005).
In brackets after ≈: the same amount, converted by molar mass.

Assays:
Type in all cases: functional
Rattus norvegicus = organism: Rattus norvegicus; test: Growth inhibitory activity against H-ras transformed rat 2 tumor cell line; settings: Rat2
MDA-MB-231 = test: Growth inhibitory activity against human MDA-MB-231 breast tumor cell line
HCT-116 = test: Growth inhibitory activity against human HCT116 colon tumor cell line
A549 = test: Inhibitory activity against human A549 lung tumor cell proliferation
SW-620 = test: Growth inhibitory activity against human SW620 colon tumor cell line
NCI-H23 = test: Growth inhibitory activity against human NCI-H23 lung tumor cell line

Row | Structure (SMILES) | GI50 (Rattus norvegicus) | GI50 (MDA-MB-231) | GI50 (HCT-116) | GI50 (A549) | GI50 (SW-620) | GI50 (NCI-H23)
1 | CC(C)c1cc2c(cc1O)[C@@]1(C)CCCC(C)(C)[C@@H]1C(O)C2=O (some centres not stated) | 3.5 µg/mL (≈ 11.1 µM) | 3.64 µg/mL (≈ 11.5 µM) | 2.52 µg/mL (≈ 7.96 µM) | 1.42 µg/mL (≈ 4.49 µM) | 3.98 µg/mL (≈ 12.6 µM) | 2.21 µg/mL (≈ 6.98 µM)
2 | CC(C)c1cc2c(cc1O)[C@@]1(C)CCC[C@@](C)(CO)[C@@H]1CC2 [18-HYDROXYFERRUGINOL] | – | < 50 µg/mL | < 50 µg/mL | < 50 µg/mL | < 50 µg/mL | < 50 µg/mL
3 | CC(C)c1cc2c(cc1O)[C@@]1(C)CCCC(C)(C)[C@@H]1CC2 [FERRUGINOL] | – | < 50 µg/mL | < 50 µg/mL | < 50 µg/mL | < 50 µg/mL | < 50 µg/mL
4 | CC(C)c1cc2c(cc1O)[C@@]1(CO)CCCC(C)(C)[C@@H]1CC2 [PISIFEROL] | 2.3 µg/mL (≈ 7.6 µM) | 8.34 µg/mL (≈ 27.6 µM) | 4.34 µg/mL (≈ 14.3 µM) | 2.9 µg/mL (≈ 9.59 µM) | 8.22 µg/mL (≈ 27.2 µM) | 2.8 µg/mL (≈ 9.26 µM)
5 | CC(C)c1cc2c(cc1O)[C@@]1(C)CCCC(C)(C)[C@@H]1CC2=O [SUGIOL] | – | < 50 µg/mL | < 50 µg/mL | < 50 µg/mL | < 50 µg/mL | < 50 µg/mL
